Earlier results in US20100273711A1, “INDIVIDUALIZED CANCER TREATMENTS” (priority 2007, published 2010).

Experiments:
SNU449 = conditions: cell line SNU449, HCC; cited from earlier work
MeWo = conditions: cell line MeWo, melanoma; cited from earlier work
BT20 = conditions: cell line BT20, breast ca; cited from earlier work
SW13 = conditions: cell line SW13, adrenal cortex carcinoma; cited from earlier work
A375 = conditions: cell line A375, melanoma; cited from earlier work
257p = conditions: cell line 257p, gastric ca; cited from earlier work
SNU182 = conditions: cell line SNU182, HCC; cited from earlier work
Du145 = conditions: cell line Du145, prostate ca; cited from earlier work
OVCAR3 = conditions: cell line OVCAR3, ovarian ca; cited from earlier work
ME43 = conditions: cell line ME43, melanoma; cited from earlier work
R193 = conditions: cell line R193, breast ca; cited from earlier work
HT-29 = conditions: cell line HT-29, colon ca; cited from earlier work
DV-90 = conditions: cell line DV-90, lung ca; cited from earlier work
CX-2 = conditions: cell line CX-2, colon ca; cited from earlier work
C8161 = conditions: cell line C8161, melanoma; cited from earlier work
SNU475 = conditions: cell line SNU475, HCC; cited from earlier work
ES-2 = conditions: cell line ES-2, ovarian ca; cited from earlier work
OAW42 = conditions: cell line OAW42, ovarian ca; cited from earlier work
SNU423 = conditions: cell line SNU423, HCC; cited from earlier work
HRT-18 = conditions: cell line HRT-18, colon ca; cited from earlier work
SKOV-3 = conditions: cell line SKOV-3, ovarian ca; cited from earlier work
181/85p = conditions: cell line 181/85p, pancreas ca; cited from earlier work
R103 = conditions: cell line R103, breast ca; cited from earlier work
SKMel19 = conditions: cell line SKMel19, melanoma; cited from earlier work
FU-OV-1 = conditions: cell line FU-OV-1, ovarian ca; cited from earlier work
SKBR3 = conditions: cell line SKBR3, breast ca; cited from earlier work
Hep3B = conditions: cell line Hep3B, HCC; cited from earlier work

For `N.N.[Cl][Pt][Cl]` [Cisplatin, cisplatin], the “Cisplatin Resistant (Res) or Sensitive (Sen)” value (“Cisplatin Resistant” below) (SNU449) is given as “Res”, the “Cisplatin Resistant” value (MeWo) is given as “Res” and the “Cisplatin Resistant” value (BT20) is given as “Sen”. For the same compound, the “Cisplatin Resistant” value (SW13) was “Res”, the “Cisplatin Resistant” value (A375) was “Res” and the “Cisplatin Resistant” value (257p) was “Res”. The “Cisplatin Resistant” value (SNU182) was “Res”, the “Cisplatin Resistant” value (Du145) was “Res” and the “Cisplatin Resistant” value (OVCAR3) was “Sen”. For the same compound, the “Cisplatin Resistant” value (ME43) was “Res”, the “Cisplatin Resistant” value (R193) was “Sen” and the “Cisplatin Resistant” value (HT-29) was “Res”. For the same compound, the “Cisplatin Resistant” value (DV-90) was “Sen”, the “Cisplatin Resistant” value (CX-2) was “Res” and the “Cisplatin Resistant” value (C8161) was “Res”. For the same compound, the “Cisplatin Resistant” value (SNU475) was “Res”, the “Cisplatin Resistant” value (ES-2) was “Res” and the “Cisplatin Resistant” value (OAW42) was “Sen”. The “Cisplatin Resistant” value (SNU423) was “Res”, the “Cisplatin Resistant” value (HRT-18) was “Res” and the “Cisplatin Resistant” value (SKOV-3) was “Res”. The “Cisplatin Resistant” value (181/85p) was “Res”, the “Cisplatin Resistant” value (R103) was “Sen” and the “Cisplatin Resistant” value (SKMel19) was “Res”. The “Cisplatin Resistant” value (FU-OV-1) was “Sen”, the “Cisplatin Resistant” value (SKBR3) was “Res” and the “Cisplatin Resistant” value (Hep3B) was “Res”.
